Data from US10564164B2, “Fluorescent probe, singlet oxygen detection agent, and singlet oxygen detection method” (Osaka University, priority 2014, dated 2020).

How the values were obtained:
[1] = Fluorescence/absorption spectrum of probe with TMPyP4 under light irradiation (photosensitised singlet oxygen); assay type: physicochemical; settings: for increase of fluorescence intensity: 50 μM Si-DMA, 5 μM TMPyP4, 50-minute irradiation 510-550 nm, 0.07 W/cm2
Procedure: Further, in the in vitro measurement, unless otherwise specified, all bulk spectrum measurements were performed in a phosphate buffered saline (PBS) having a pH of 7.5 without Ca and Mg or spectral grade methanol. The absorption spectrum and fluorescence spectrum in the ground state were measured using the Shimadzu UV-3100 and Horiba FluoroMax-4, respectively. The bulk irradiation was performed using a xenon light source (LAX-C100, Asahi Spectra Co., Ltd.) and a wavelength filter (BA510-550, Olympus Corporation).
The concentration of Si-DMA was 50 μM, and the concentration of TMPyP4 was 5 μM. The light irradiation was performed using a 510- to 550-nm wavelength ray at an intensity of 0.07 W/cm^2 under magnetic stirring so as to generate singlet oxygen.
In FIGS. 1a) and 1c), the black arrows denote changes in absorption by peroxidation (solid line) of the anthracene structure and disaggregation of hydrogen aggregate (broken line).
Subsequently, Si-DMA was reacted with singlet oxygen, thereby forming Si-DMEP; as a result, photoinduced electron transfer was inhibited, thereby increasing the fluorescence intensity (Φfl=0.17). In methanol, the fluorescence intensity increased about 18 times (in methanol), and about 22 times (in PBS) (FIGS. 1b) and 1d); red), and a loss of the anthracene structure was observed (FIG. 1a); black arrow).

HeLa cells = test: Viable cell imaging / localization in organelle; assay type: cell-based; settings: Si-DMA 20 nM / 100 nM, co-staining with Mito Tracker Green FM
Procedure: A treatment requiring incubation of less than two hours was performed using a serum-free culture medium containing 20 mM of HEPES, and a treatment requiring incubation of four hours or more was performed using a blood serum-containing medium containing 20 mM of HEPES so as to maintain the cell viability. To label mitochondria, Mito Tracker® Green FM was diluted to 50 nM, and incubated for 30 minutes. Further, 10000 MW of dextran (A488- and A647-dextran) labeled with Alexa Fluor® 488 or Alexa Fluor® 647 was diluted to 50 μg/mL, and incubated for 24 hours, thereby staining lysosome.
Subsequently, a quick protocol provided by Molecular Probe® for introducing CellROX Green was followed. […] As a result, as previously reported, the conversion of 5-ALA into protoporphyrin IX (PpIX) in the mitochondria was confirmed by the fluorescence luminescence of PpIX.
In order to monitor an increase in fluorescence upon light irradiation on Si-DMA of Example 1, irradiation on reactive oxygen species was performed while monitoring the probe using an IX81 inverted fluorescence microscope (Olympus Corporation) and 640-nm CW laser (Coherent). […] The images of luminescence were collected and recorded by an EMCCD camera (Evolve 512; Roper Scientific) via a dichroic beam splitter (DI02-R635; Semrock) and a bandpass filter (HQ690/70; Chroma). […]

## Cc1c2ccccc2c(C)c2cc(C3=C4C=CC(=[N+](C)C)C=C4[Si](C)(C)c4cc(N(C)C)ccc43)ccc12 [Si-DMA]
[1]; after 900 seconds
  stability (color fading) under light irradiation: color fading was not observed
[1]; in PBS
  increase of fluorescence intensity: about 22 times
[1]; in methanol
  increase of fluorescence intensity: about 18 times
[1]; in the absence of TMPyP4
  change of fluorescence on light irradiation: did not increase
HeLa cells
  intracellular localization: selectively localized in mitochondria
